In PubChem BioAssay (NCI):
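Abbreviation: GI50, concentration required for 50% inhibition of growth. TGI is the concentration that stops growth completely.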

Columns and labels:
Assay in all cases: NCI-60 cell line screen, 384-well format
[1] = system: KM12 colon
[2] = system: MDA-MB-468 breast
[3] = system: A549 NSCLC
[4] = system: PC-3 prostate
[5] = system: SK-MEL-5 melanoma
[6] = system: NCI-H460 NSCLC
[7] = system: DU-145 prostate
[8] = system: NCI-H226 lung
[9] = system: MDA-MB-231 breast
[10] = system: HCT-116 colon
[11] = system: UACC-62 melanoma
[12] = system: HT29 colon
[13] = system: EKVX NSCLC
[14] = system: IGROV1 ovarian
[15] = system: CCRF-CEM leukemia
[16] = system: MOLT-4 leukemia
[17] = system: UACC-257 melanoma
[18] = system: NCI-H322M lung
[19] = system: U251 glioblastoma
[20] = system: MALME-3M melanoma
[21] = system: COLO 205 colon
[22] = system: 786-0 renal
[23] = system: M14 melanoma
[24] = system: NCI-H522 lung
[25] = system: OVCAR-4 ovarian
[26] = system: LOX IMVI melanoma
[27] = system: BT-549 breast
[28] = system: OVCAR-8 ovarian
[29] = system: SF-268 CNS
[30] = system: SK-MEL-28 melanoma
[31] = system: SR leukemia
[32] = system: SNB-19 CNS
[33] = system: OVCAR-3 ovarian
[34] = system: HOP-62 NSCLC
[35] = system: A498 renal
[36] = system: SF-295 CNS
[37] = system: SW-620 colon
[38] = system: NCI-H23 lung
[39] = system: MCF7 breast
[40] = system: HL-60(TB) leukemia
[41] = system: K-562 leukemia
[42] = system: RPMI-8226 leukemia
[43] = system: HCC-2998 colon
[44] = system: SN12C renal
[45] = system: NCI/ADR-RES ovarian
[46] = system: TK-10 renal
[47] = system: HCT-15 colon
[48] = system: HS 578T breast
[49] = system: SNB-75 CNS
[50] = system: UO-31 renal
[51] = system: SF-539 CNS
[52] = system: ACHN renal
[53] = system: T-47D breast
[54] = system: HOP-92 NSCLC
[55] = system: MDA-MB-435 melanoma
[56] = system: CAKI-1 renal
[57] = system: SK-OV-3 ovarian
[58] = system: RXF 393 renal
[59] = system: OVCAR-5 ovarian

Compound `C[C@@H]1COCCN1c1cc(C2([S@@](C)(=N)=O)CC2)nc(-c2ccnc3[nH]ccc23)n1` has a GI50 [1] of 1.8 µM, a TGI [1] of 27.1 µM and a GI50 [2] of 5.01 µM. It also gave a TGI [2] of 27.3 µM, a GI50 [3] of 3.93 µM and a TGI [3] of 36.5 µM. The GI50 [4] was 7.65 µM, the TGI [4] was > 100 µM and the GI50 [5] was 7.66 µM. The TGI [5] was 25 µM, the GI50 [6] was 1.38 µM and the TGI [6] was 10.5 µM. The GI50 [7] was 3.82 µM, the TGI [7] was > 100 µM and the GI50 [8] was 16.1 µM. The TGI [8] was 77 µM, the GI50 [9] was 6.06 µM and the TGI [9] was > 100 µM. For the same compound, the GI50 [10] was 3.27 µM, the TGI [10] was 56.5 µM and the GI50 [11] was 4.45 µM. The TGI [11] was 64.9 µM, the GI50 [12] was 4.65 µM and the TGI [12] was 26.9 µM. For the same compound, the GI50 [13] was 9.1 µM, the TGI [13] was 69.1 µM and the GI50 [14] was 3.47 µM. The TGI [14] was 32.9 µM, the GI50 [15] was 0.902 µM and the TGI [15] was 2.26 µM. The GI50 [16] was 1.35 µM, the TGI [16] was 2.68 µM and the GI50 [17] was 41.3 µM. The TGI [17] was > 100 µM, the GI50 [18] was 1.78 µM and the TGI [18] was 7.77 µM. The GI50 [19] was 5.72 µM, the TGI [19] was > 100 µM and the GI50 [20] was 3.72 µM. The TGI [20] was 23.6 µM, the GI50 [21] was 9.01 µM and the TGI [21] was 62.6 µM. For the same compound, the GI50 [22] was 2.32 µM, the TGI [22] was 12.1 µM and the GI50 [23] was 2.44 µM. The TGI [23] was 9.06 µM, the GI50 [24] was 10.8 µM and the TGI [24] was > 100 µM. It also gave a GI50 [25] of 5.37 µM, a TGI [25] of 75.1 µM and a GI50 [26] of 3.43 µM. The TGI [26] was 14 µM, the GI50 [27] was 1.98 µM and the TGI [27] was 7.43 µM. For the same compound, the GI50 [28] was 7.62 µM, the TGI [28] was 32.2 µM and the GI50 [29] was 5.75 µM. For the same compound, the TGI [29] was 95.7 µM, the GI50 [30] was 23.8 µM and the TGI [30] was > 100 µM. For the same compound, the GI50 [31] was 0.0145 µM, the TGI [31] was 0.244 µM and the GI50 [32] was 9.29 µM. The TGI [32] was > 100 µM, the GI50 [33] was 4.62 µM and the TGI [33] was > 100 µM. The GI50 [34] was 2.15 µM, the TGI [34] was 9.45 µM and the GI50 [35] was 1.12 µM. The TGI [35] was 3.92 µM, the GI50 [36] was 2.68 µM and the TGI [36] was 13.7 µM. For the same compound, the GI50 [37] was 10.6 µM, the TGI [37] was > 100 µM and the GI50 [38] was 1.97 µM. For the same compound, the TGI [38] was 5.21 µM, the GI50 [39] was 1.27 µM and the TGI [39] was > 100 µM. The GI50 [40] was 1.98 µM, the TGI [40] was 3.68 µM and the GI50 [41] was 3.3 µM. The TGI [41] was 12 µM, the GI50 [42] was 1.82 µM and the TGI [42] was 4.28 µM. The GI50 [43] was 1.1 µM, the TGI [43] was 5.38 µM and the GI50 [44] was 4.3 µM. For the same compound, the TGI [44] was 50.1 µM, the GI50 [45] was 61.8 µM and the TGI [45] was > 100 µM. The GI50 [46] was 1.83 µM, the TGI [46] was 6.26 µM and the GI50 [47] was 4.48 µM. The TGI [47] was > 100 µM, the GI50 [48] was 1.22 µM and the TGI [48] was 3.37 µM. The GI50 [49] was 3.9 µM, the TGI [49] was 51.8 µM and the GI50 [50] was 4.47 µM. For the same compound, the TGI [50] was > 100 µM, the GI50 [51] was 2.16 µM and the TGI [51] was 6.4 µM. For the same compound, the GI50 [52] was 2.03 µM, the TGI [52] was 17.5 µM and the GI50 [53] was 14.7 µM. For the same compound, the TGI [53] was > 100 µM, the GI50 [54] was 3.02 µM and the TGI [54] was 13.1 µM. For the same compound, the GI50 [55] was 7.48 µM, the TGI [55] was > 100 µM and the GI50 [56] was 3.87 µM. For the same compound, the TGI [56] was 29.6 µM, the GI50 [57] was 3.29 µM and the TGI [57] was 41.8 µM.

Work on `COc1ccc2c(c[n+](C)c3c4cc5c(cc4ccc23)OCO5)c1OC` yielded a GI50 [1] of 1.47 µM, a TGI [1] of 2.8 µM and a GI50 [2] of 0.365 µM. For the same compound, the TGI [2] was 1.36 µM, the GI50 [3] was 1.83 µM and the TGI [3] was 3.27 µM. For the same compound, the GI50 [4] was 1.19 µM, the TGI [4] was 2.42 µM and the GI50 [5] was 0.72 µM. It also gave a TGI [5] of 2.04 µM, a GI50 [6] of 1.52 µM and a TGI [6] of 2.85 µM. For the same compound, the GI50 [7] was 1.46 µM, the TGI [7] was 2.77 µM and the GI50 [8] was 1.83 µM. It also gave a TGI [8] of 3.22 µM, a GI50 [9] of 0.721 µM and a TGI [9] of 1.99 µM. For the same compound, the GI50 [10] was 0.399 µM, the TGI [10] was 1.38 µM and the GI50 [12] was 1.68 µM. The TGI [12] was 3.05 µM, the GI50 [13] was 1.45 µM and the TGI [13] was 2.76 µM. It also gave a GI50 [14] of 1.62 µM, a TGI [14] of 2.97 µM and a GI50 [15] of 0.146 µM. For the same compound, the TGI [15] was 0.278 µM, the GI50 [16] was 0.163 µM and the TGI [16] was 0.3 µM. The GI50 [17] was 1.23 µM, the TGI [17] was 2.48 µM and the GI50 [18] was 1.77 µM. For the same compound, the TGI [18] was 3.19 µM, the GI50 [19] was 0.866 µM and the TGI [19] was 2.08 µM. For the same compound, the GI50 [58] was 1.57 µM, the TGI [58] was 2.94 µM and the GI50 [20] was 0.748 µM. It also gave a TGI [20] of 1.96 µM, a GI50 [21] of 1.57 µM and a TGI [21] of 2.92 µM. It also gave a GI50 [22] of 1.34 µM, a TGI [22] of 2.63 µM and a GI50 [23] of 1.59 µM. It also gave a TGI [23] of 2.94 µM, a GI50 [24] of 1.44 µM and a TGI [24] of 2.75 µM. For the same compound, the GI50 [25] was 1.5 µM, the TGI [25] was 2.87 µM and the GI50 [26] was 1.1 µM. For the same compound, the TGI [26] was 2.31 µM, the GI50 [27] was 0.68 µM and the TGI [27] was 1.94 µM. For the same compound, the GI50 [28] was 0.395 µM, the TGI [28] was 1.43 µM and the GI50 [29] was 1.34 µM. For the same compound, the TGI [29] was 2.62 µM, the GI50 [30] was 1.9 µM and the TGI [30] was 3.35 µM. It also gave a GI50 [31] of 0.174 µM, a TGI [31] of 0.317 µM and a GI50 [32] of 1.5 µM. For the same compound, the TGI [32] was 2.84 µM, the GI50 [33] was 0.362 µM and the TGI [33] was 1.33 µM. The GI50 [34] was 1.06 µM, the TGI [34] was 2.25 µM and the GI50 [35] was 1.87 µM. It also gave a TGI [35] of 3.39 µM, a GI50 [36] of 1.74 µM and a TGI [36] of 3.15 µM. It also gave a GI50 [37] of 0.267 µM, a TGI [37] of 0.758 µM and a GI50 [38] of 1 µM. It also gave a TGI [38] of 2.16 µM, a GI50 [39] of 1.13 µM and a TGI [39] of 2.35 µM. It also gave a GI50 [40] of 0.182 µM, a TGI [40] of 0.324 µM and a GI50 [41] of 1.61 µM. The TGI [41] was 2.97 µM, the GI50 [42] was 0.44 µM and the TGI [42] was 1.46 µM. For the same compound, the GI50 [43] was 1.59 µM, the TGI [43] was 2.94 µM and the GI50 [44] was 0.615 µM. For the same compound, the TGI [44] was 1.89 µM, the GI50 [45] was 1.02 µM and the TGI [45] was 2.59 µM. For the same compound, the GI50 [46] was 1.42 µM, the TGI [46] was 2.73 µM and the GI50 [47] was 0.825 µM. It also gave a TGI [47] of 2.07 µM, a GI50 [48] of 1.55 µM and a TGI [48] of 2.89 µM. The GI50 [49] was 1.64 µM, the TGI [49] was 3 µM and the GI50 [50] was 1.4 µM. The TGI [50] was 2.7 µM, the GI50 [51] was 1.63 µM and the TGI [51] was 2.99 µM. For the same compound, the GI50 [52] was 1.82 µM, the TGI [52] was 3.21 µM and the GI50 [53] was 1.63 µM. It also gave a TGI [53] of 2.99 µM, a GI50 [54] of 1.51 µM and a TGI [54] of 2.85 µM. For the same compound, the GI50 [55] was 1.63 µM, the TGI [55] was 2.99 µM and the GI50 [56] was 1.27 µM. The TGI [56] was 2.56 µM, the GI50 [57] was 1.71 µM and the TGI [57] was 3.13 µM. It also gave a GI50 [59] of 1.76 µM and a TGI [59] of 3.16 µM.
